Reference: ChEMBL document CHEMBL3232998, “Spiromastixones A-O, antibacterial chlorodepsidones from a deep-sea-derived Spiromastix sp. fungus” (J Nat Prod, 2014)
≈ marks a conversion by molar mass, not a printed value.

Experiments:
[1] = system: Staphylococcus epidermidis; assay: Antibacterial activity against methicillin-sensitive Staphylococcus epidermidis 12-6 after 18 hrs by broth microdilution method; assay type: functional, organism-based; details: 12-6, 18 h
Klebsiella pneumoniae [2] = assay: Antibacterial activity against extended spectrum beta-lactamase producing Klebsiella pneumoniae 12-8 after 18 hrs by broth microdilution method; assay type: functional, organism-based; details: 12-8, 18 h, read-out: IC50
Klebsiella pneumoniae [3] = assay: Antibacterial activity against NDM-1 producing Klebsiella pneumoniae ATCC BAA-2146 after 18 hrs by broth microdilution method; assay type: functional, organism-based; details: ATCC BAA-2146, 18 h, read-out: IC50
Escherichia coli [4] = assay: Antibacterial activity against extended spectrum beta-lactamase producing Escherichia coli 12-15 after 18 hrs by broth microdilution method; assay type: functional, organism-based; details: 12-15, 18 h, read-out: IC50
Escherichia coli [5] = assay: Antibacterial activity against Escherichia coli ATCC 25922 after 18 hrs by broth microdilution method; assay type: functional; details: ATCC 25922, 18 h
Klebsiella pneumoniae [6] = assay: Antibacterial activity against extended spectrum beta-lactamase-deficient Klebsiella pneumoniae 12-4 after 18 hrs by broth microdilution method; assay type: functional, organism-based; details: 12-4, 18 h
Enterococcus faecalis [7] = assay: Antibacterial activity against vancomycin-sensitive Enterococcus faecalis 12-5 after 18 hrs by broth microdilution method; assay type: functional, organism-based; details: 12-5, 18 h, read-out: IC50
Staphylococcus aureus [8] = assay: Antibacterial activity against Staphylococcus aureus ATCC 29213 after 18 hrs by broth microdilution method; assay type: functional; details: ATCC 29213, 18 h
Escherichia coli [9] = assay: Antibacterial activity against extended spectrum beta-lactamase-deficient Escherichia coli 1515 after 18 hrs by broth microdilution method; assay type: functional, organism-based; details: Escherichia coli, 1515, 18 h
Enterococcus faecalis [10] = assay: Antibacterial activity against vancomycin-resistant Enterococcus faecalis 09-9 after 18 hrs by broth microdilution method; assay type: functional, organism-based; details: 09-9, 18 h, read-out: IC50
Klebsiella pneumoniae [11] = assay: Antibacterial activity against extended spectrum beta-lactamase producing Klebsiella pneumoniae ATCC 700603 after 18 hrs by broth microdilution method; assay type: functional, organism-based; details: ATCC 700603, 18 h
Staphylococcus aureus [12] = assay: Antibacterial activity against methicillin-resistant Staphylococcus aureus ATCC 33591 after 18 hrs by broth microdilution method; assay type: functional, organism-based; details: ATCC 33591, 18 h, read-out: IC50
Bacillus subtilis = assay: Antibacterial activity against Bacillus subtilis SCSIO BS01 after 18 hrs by broth microdilution method; assay type: functional; details: SCSIO BS01, 18 h
Staphylococcus aureus [13] = assay: Antibacterial activity against methicillin-sensitive Staphylococcus aureus ATCC 29213 after 18 hrs by broth microdilution method; assay type: functional, organism-based; details: ATCC 29213, 18 h, read-out: IC50
Enterococcus faecalis [14] = assay: Antibacterial activity against vancomycin-resistant Enterococcus faecalis ATCC 51299 after 18 hrs by broth microdilution method; assay type: functional, organism-based; details: ATCC 51299, 18 h, read-out: IC50
Bacillus thuringiensis = assay: Antibacterial activity against Bacillus thuringiensis SCSIO BT01 after 18 hrs by broth microdilution method; assay type: functional; details: SCSIO BT01, 18 h
Escherichia coli [15] = assay: Antibacterial activity against extended spectrum beta-lactamase-deficient Escherichia coli 12-14 after 18 hrs by broth microdilution method; assay type: functional, organism-based; details: 12-14, 18 h, read-out: IC50
Klebsiella pneumoniae [16] = assay: Antibacterial activity against extended spectrum beta-lactamase-deficient Klebsiella pneumoniae 7 after 18 hrs by broth microdilution method; assay type: functional, organism-based; details: Klebsiella pneumoniae, 7, 18 h; read-out: IC50
Enterococcus faecium [17] = assay: Antibacterial activity against vancomycin-sensitive Enterococcus faecium 12-3 after 18 hrs by broth microdilution method; assay type: functional, organism-based; details: 12-3, 18 h, read-out: IC50
Staphylococcus aureus [18] = assay: Ratio of levofloxacin IC50 to compound IC50 for methicillin-resistant Staphylococcus aureus 12-33 after 18 hrs by broth microdilution method; assay type: functional
Enterococcus faecium [19] = assay: Antibacterial activity against vancomycin-resistant Enterococcus faecium 12-1 after 18 hrs by broth microdilution method; assay type: functional, organism-based; details: 12-1, 18 h, read-out: IC50
Staphylococcus aureus [20] = assay: Antibacterial activity against methicillin-sensitive Staphylococcus aureus 12-28 after 18 hrs by broth microdilution method; assay type: functional, organism-based; details: 12-28, 18 h
Staphylococcus aureus [21] = assay: Antibacterial activity against methicillin-resistant Staphylococcus aureus 12-33 after 18 hrs by broth microdilution method; assay type: functional, organism-based; details: 12-33, 18 h, read-out: IC50
Escherichia coli [22] = assay: Antibacterial activity against extended spectrum beta-lactamase-deficient Escherichia coli ATCC 25922 after 18 hrs by broth microdilution method; assay type: functional, organism-based; details: ATCC 25922, 18 h, read-out: IC50
Staphylococcus aureus [23] = assay: Antibacterial activity against methicillin-sensitive Staphylococcus aureus 15 after 18 hrs by broth microdilution method; assay type: functional, organism-based; details: Staphylococcus aureus, 15, 18 h; read-out: IC50
Enterococcus faecium [24] = assay: Antibacterial activity against vancomycin-resistant Enterococcus faecium ATCC 700221 after 18 hrs by broth microdilution method; assay type: functional, organism-based; details: ATCC 700221, 18 h, read-out: IC50
[25] = system: Staphylococcus epidermidis; assay: Antibacterial activity against methicillin-resistant Staphylococcus epidermidis 12-8 after 18 hrs by broth microdilution method; assay type: functional, organism-based; details: 12-8, 18 h, read-out: IC50
[26] = system: Staphylococcus epidermidis; assay: Antibacterial activity against methicillin-sensitive Staphylococcus epidermidis ATCC 12228 after 18 hrs by broth microdilution method; assay type: functional, organism-based; details: ATCC 12228, 18 h, read-out: IC50
Enterococcus faecalis [27] = assay: Antibacterial activity against vancomycin-sensitive Enterococcus faecalis ATCC 29212 after 18 hrs by broth microdilution method; assay type: functional, organism-based; details: ATCC 29212, 18 h, read-out: IC50

CCCc1c(Cl)c(OC)c(Cl)c2c1Oc1c(Cl)c(O)c(Cl)c(CCC)c1C(=O)O2
IC50 [1]: 2 µM | MIC (Klebsiella pneumoniae [2]): > 256 µM | MIC (Klebsiella pneumoniae [3]): > 256 µM | MIC (Escherichia coli [4]): > 256 µM | MIC (Escherichia coli [5]): > 128 µg/mL | IC50 (Klebsiella pneumoniae [6]): > 256 µM | MIC (Enterococcus faecalis [7]): 4 µM (≈ 1.92 µg/mL) | MIC (Staphylococcus aureus [8]): 0.125 µg/mL (≈ 0.26 µM) | IC50 (Escherichia coli [9]): > 256 µM | MIC (Enterococcus faecalis [10]): 4 µM (≈ 1.92 µg/mL) | IC50 (Klebsiella pneumoniae [11]): > 256 µM | MIC (Staphylococcus aureus [12]): 2 µM (≈ 0.96 µg/mL) | MIC (Bacillus subtilis): 0.125 µg/mL (≈ 0.26 µM) | MIC (Staphylococcus aureus [13]): 4 µM (≈ 1.92 µg/mL) | MIC (Enterococcus faecalis [14]): 4 µM (≈ 1.92 µg/mL) | MIC (Bacillus thuringiensis): 0.25 µg/mL (≈ 0.521 µM) | MIC (Escherichia coli [15]): > 256 µM | MIC (Klebsiella pneumoniae [16]): > 256 µM | MIC (Enterococcus faecium [17]): 4 µM (≈ 1.92 µg/mL) | Ratio IC50 (Staphylococcus aureus [18]): 2 | MIC (Enterococcus faecium [19]): 4 µM (≈ 1.92 µg/mL) | IC50 (Staphylococcus aureus [20]): 4 µM | MIC (Staphylococcus aureus [21]): 4 µM (≈ 1.92 µg/mL) | MIC (Escherichia coli [22]): > 256 µM | MIC (Staphylococcus aureus [23]): 2 µM (≈ 0.96 µg/mL) | MIC (Enterococcus faecium [24]): 4 µM (≈ 1.92 µg/mL) | MIC [25]: 1 µM (≈ 0.48 µg/mL) | MIC [26]: 4 µM (≈ 1.92 µg/mL) | MIC (Enterococcus faecalis [27]): 4 µM (≈ 1.92 µg/mL)
